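Following 48 hours of exposure in 96-well plates, responses at five concentrations were used to interpolate endpoints linearly. Here, GI50 denotes the concentration required for 50% inhibition of growth. At the TGI there is no net growth.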
Columns and labels:
Test in all cases: NCI-60 cell line screen, 48 h; in the data active = GI50 below about 0.43 µM; inactive = the rest
786-0 renal = test system: 786-0 renal
A498 renal = test system: A498 renal
A549 NSCLC = test system: A549 NSCLC
ACHN renal = test system: ACHN renal
BT-549 breast = test system: BT-549 breast
CAKI-1 renal = test system: CAKI-1 renal
CCRF-CEM leukemia = test system: CCRF-CEM leukemia
COLO 205 colon = test system: COLO 205 colon
DU-145 prostate = test system: DU-145 prostate
HCC-2998 colon = test system: HCC-2998 colon
HCT-116 colon = test system: HCT-116 colon
HCT-15 colon = test system: HCT-15 colon
HL-60(TB) leukemia = test system: HL-60(TB) leukemia
HOP-62 NSCLC = test system: HOP-62 NSCLC
HOP-92 NSCLC = test system: HOP-92 NSCLC
HS 578T breast = test system: HS 578T breast
HT29 colon = test system: HT29 colon
IGROV1 ovarian = test system: IGROV1 ovarian
K-562 leukemia = test system: K-562 leukemia
KM12 colon = test system: KM12 colon
LOX IMVI melanoma = test system: LOX IMVI melanoma
M14 melanoma = test system: M14 melanoma
MALME-3M melanoma = test system: MALME-3M melanoma
MCF7 breast = test system: MCF7 breast
MDA-MB-231 breast = test system: MDA-MB-231 breast
MDA-MB-435 = test system: MDA-MB-435
MOLT-4 leukemia = test system: MOLT-4 leukemia
NCI-H226 lung = test system: NCI-H226 lung
NCI-H23 lung = test system: NCI-H23 lung
NCI-H460 lung = test system: NCI-H460 lung
NCI-H522 lung = test system: NCI-H522 lung
NCI/ADR-RES ovarian = test system: NCI/ADR-RES ovarian
OVCAR-3 ovarian = test system: OVCAR-3 ovarian
OVCAR-4 ovarian = test system: OVCAR-4 ovarian
OVCAR-5 ovarian = test system: OVCAR-5 ovarian
OVCAR-8 ovarian = test system: OVCAR-8 ovarian
PC-3 prostate = test system: PC-3 prostate
RPMI-8226 leukemia = test system: RPMI-8226 leukemia
RXF 393 renal = test system: RXF 393 renal
SF-268 CNS = test system: SF-268 CNS
SF-295 CNS = test system: SF-295 CNS
SF-539 CNS = test system: SF-539 CNS
SK-MEL-2 melanoma = test system: SK-MEL-2 melanoma
SK-MEL-28 melanoma = test system: SK-MEL-28 melanoma
SK-MEL-5 melanoma = test system: SK-MEL-5 melanoma
SK-OV-3 ovarian = test system: SK-OV-3 ovarian
SN12C renal = test system: SN12C renal
SNB-19 CNS = test system: SNB-19 CNS
SNB-75 CNS = test system: SNB-75 CNS
SR leukemia = test system: SR leukemia
SW-620 colon = test system: SW-620 colon
T-47D breast = test system: T-47D breast
TK-10 renal = test system: TK-10 renal
U251 CNS = test system: U251 CNS
UACC-257 melanoma = test system: UACC-257 melanoma
UACC-62 melanoma = test system: UACC-62 melanoma
UO-31 renal = test system: UO-31 renal
EKVX NSCLC = test system: EKVX NSCLC
MDA-N = test system: MDA-N

COC(=O)[C@H](Cc1cn(C)cn1)NC(=O)[C@H](Cc1c[nH]c2ccccc12)NC(=O)Nc1cc(C(F)(F)F)cc(C(F)(F)F)c1
> 10 µM: TGI (786-0 renal) | TGI (A498 renal) | TGI (A549 NSCLC) | TGI (ACHN renal) | TGI (BT-549 breast) | TGI (CAKI-1 renal) | TGI (CCRF-CEM leukemia) | TGI (COLO 205 colon) | TGI (DU-145 prostate) | TGI (HCC-2998 colon) | TGI (HCT-116 colon) | TGI (HCT-15 colon) | TGI (HL-60(TB) leukemia) | TGI (HOP-62 NSCLC) | TGI (HOP-92 NSCLC) | TGI (HT29 colon) | TGI (IGROV1 ovarian) | TGI (K-562 leukemia) | TGI (KM12 colon) | TGI (LOX IMVI melanoma) | TGI (M14 melanoma) | TGI (MALME-3M melanoma) | TGI (MCF7 breast) | TGI (MDA-MB-231 breast) | TGI (MDA-MB-435) | TGI (MOLT-4 leukemia) | TGI (NCI-H226 lung) | TGI (NCI-H23 lung) | TGI (NCI-H460 lung) | TGI (NCI-H522 lung) | TGI (NCI/ADR-RES ovarian) | TGI (OVCAR-3 ovarian) | TGI (OVCAR-4 ovarian) | TGI (OVCAR-5 ovarian) | TGI (OVCAR-8 ovarian) | TGI (PC-3 prostate) | TGI (RPMI-8226 leukemia) | TGI (RXF 393 renal) | TGI (SF-268 CNS) | TGI (SF-295 CNS) | TGI (SF-539 CNS) | TGI (SK-MEL-2 melanoma) | TGI (SK-MEL-28 melanoma) | TGI (SK-MEL-5 melanoma) | TGI (SK-OV-3 ovarian) | TGI (SN12C renal) | TGI (SNB-19 CNS) | TGI (SNB-75 CNS) | TGI (SR leukemia) | TGI (SW-620 colon) | TGI (TK-10 renal) | TGI (U251 CNS) | TGI (UACC-257 melanoma) | TGI (UACC-62 melanoma) | TGI (UO-31 renal)
> 10000 nM: TGI (HS 578T breast) | TGI (T-47D breast)
inactive: GI50 (786-0 renal) > 10 µM | GI50 (A498 renal) > 10 µM | GI50 (A549 NSCLC) > 10 µM | GI50 (ACHN renal) > 10 µM | GI50 (BT-549 breast) > 10 µM | GI50 (CAKI-1 renal) > 10 µM | GI50 (CCRF-CEM leukemia) > 10 µM | GI50 (COLO 205 colon) > 10 µM | GI50 (DU-145 prostate) > 10 µM | GI50 (HCC-2998 colon) > 10 µM | GI50 (HCT-116 colon) > 10 µM | GI50 (HCT-15 colon) > 10 µM | GI50 (HL-60(TB) leukemia) > 10 µM | GI50 (HOP-62 NSCLC) > 10 µM | GI50 (HOP-92 NSCLC) > 10 µM | GI50 (HS 578T breast) > 10 µM | GI50 (HT29 colon) > 10 µM | GI50 (IGROV1 ovarian) > 10 µM | GI50 (K-562 leukemia) > 10 µM | GI50 (KM12 colon) > 10 µM | GI50 (LOX IMVI melanoma) > 10 µM | GI50 (M14 melanoma) > 10 µM | GI50 (MALME-3M melanoma) > 10 µM | GI50 (MCF7 breast) > 10 µM | GI50 (MDA-MB-231 breast) > 10 µM | GI50 (MDA-MB-435) > 10 µM | GI50 (MOLT-4 leukemia) > 10 µM | GI50 (NCI-H226 lung) > 10 µM | GI50 (NCI-H23 lung) > 10 µM | GI50 (NCI-H460 lung) > 10 µM | GI50 (NCI-H522 lung) > 10 µM | GI50 (NCI/ADR-RES ovarian) > 10 µM | GI50 (OVCAR-3 ovarian) > 10 µM | GI50 (OVCAR-4 ovarian) > 10 µM | GI50 (OVCAR-5 ovarian) > 10 µM | GI50 (OVCAR-8 ovarian) > 10 µM | GI50 (PC-3 prostate) > 10 µM | GI50 (RPMI-8226 leukemia) > 10 µM | GI50 (RXF 393 renal) > 10 µM | GI50 (SF-268 CNS) > 10 µM | GI50 (SF-295 CNS) > 10 µM | GI50 (SF-539 CNS) > 10 µM | GI50 (SK-MEL-2 melanoma) > 10 µM | GI50 (SK-MEL-28 melanoma) > 10 µM | GI50 (SK-MEL-5 melanoma) > 10 µM | GI50 (SK-OV-3 ovarian) > 10 µM | GI50 (SN12C renal) > 10 µM | GI50 (SNB-19 CNS) > 10 µM | GI50 (SNB-75 CNS) > 10 µM | GI50 (SR leukemia) > 10 µM | GI50 (SW-620 colon) > 10 µM | GI50 (T-47D breast) > 10 µM | GI50 (TK-10 renal) > 10 µM | GI50 (U251 CNS) > 10 µM | GI50 (UACC-257 melanoma) > 10 µM | GI50 (UACC-62 melanoma) > 10 µM | GI50 (UO-31 renal) > 10 µM

COc1cc2c(cc1OCCCCOc1cc(-c3ccc(F)cc3)nc(C)n1)N=C[C@@H]1CCCN1C2=O
50 µM: TGI (DU-145 prostate)
2.12 µM: TGI (NCI/ADR-RES ovarian)
15.2 µM: TGI (MCF7 breast)
16.2 µM: TGI (SK-OV-3 ovarian)
0.36 µM: TGI (RPMI-8226 leukemia)
0.823 µM: TGI (ACHN renal)
2.05 µM: TGI (CAKI-1 renal)
10.9 µM: TGI (OVCAR-5 ovarian)
2.81 µM: TGI (SK-MEL-28 melanoma)
1.82 µM: TGI (MALME-3M melanoma)
2.09 µM: TGI (HCT-15 colon)
4.6 µM: TGI (A498 renal)
4.75 µM: TGI (SNB-19 CNS)
6.6 µM: TGI (OVCAR-8 ovarian)
0.363 µM: TGI (SR leukemia)
12 µM: TGI (UO-31 renal)
1.88 µM: TGI (UACC-257 melanoma)
3.67 µM: TGI (KM12 colon)
6.94 µM: TGI (786-0 renal)
6.07 µM: TGI (PC-3 prostate)
7.55 µM: TGI (SN12C renal)
1.28 µM: TGI (UACC-62 melanoma)
2.55 µM: TGI (U251 CNS)
17.8 µM: TGI (SNB-75 CNS)
9.5 µM: TGI (K-562 leukemia)
1.42 µM: TGI (MDA-MB-435)
3.43 µM: TGI (HOP-62 NSCLC)
16.3 µM: TGI (SF-268 CNS)
1.17 µM: TGI (COLO 205 colon)
4.85 µM: TGI (SW-620 colon)
2790 nM: TGI (HS 578T breast)
6.18 µM: TGI (HOP-92 NSCLC)
0.487 µM: TGI (TK-10 renal)
1.37 µM: TGI (NCI-H23 lung)
2.31 µM: TGI (SF-539 CNS) | TGI (SK-MEL-2 melanoma)
0.663 µM: TGI (LOX IMVI melanoma)
2.28 µM: TGI (BT-549 breast) | TGI (NCI-H522 lung)
4.71 µM: TGI (NCI-H226 lung)
0.279 µM: TGI (MOLT-4 leukemia)
0.689 µM: TGI (HCC-2998 colon)
1.44 µM: TGI (SK-MEL-5 melanoma)
3.17 µM: TGI (CCRF-CEM leukemia)
10.8 µM: TGI (A549 NSCLC)
8.59 µM: TGI (HCT-116 colon)
28.7 µM: TGI (HL-60(TB) leukemia)
2.3 µM: TGI (OVCAR-4 ovarian)
2.66 µM: TGI (OVCAR-3 ovarian)
2.26 µM: TGI (SF-295 CNS)
1.87 µM: TGI (M14 melanoma)
3.92 µM: TGI (HT29 colon)
5.18 µM: TGI (EKVX NSCLC) | TGI (MDA-MB-231 breast)
1140 nM: TGI (T-47D breast)
3.22 µM: TGI (RXF 393 renal)
12.2 µM: TGI (IGROV1 ovarian)

CC(=O)NS(=O)(=O)c1ccc(NC(=O)c2c3ccccc3nc3ccccc23)cc1
> 100 µM: TGI (786-0 renal) | TGI (A498 renal) | TGI (A549 NSCLC) | TGI (ACHN renal) | TGI (BT-549 breast) | TGI (CAKI-1 renal) | TGI (CCRF-CEM leukemia) | TGI (COLO 205 colon) | TGI (DU-145 prostate) | TGI (EKVX NSCLC) | TGI (HCC-2998 colon) | TGI (HCT-116 colon) | TGI (HCT-15 colon) | TGI (HOP-62 NSCLC) | TGI (HOP-92 NSCLC) | TGI (HT29 colon) | TGI (IGROV1 ovarian) | TGI (K-562 leukemia) | TGI (KM12 colon) | TGI (LOX IMVI melanoma) | TGI (M14 melanoma) | TGI (MALME-3M melanoma) | TGI (MCF7 breast) | TGI (MDA-MB-231 breast) | TGI (MDA-MB-435) | TGI (MDA-N) | TGI (MOLT-4 leukemia) | TGI (NCI-H23 lung) | TGI (NCI-H460 lung) | TGI (NCI-H522 lung) | TGI (NCI/ADR-RES ovarian) | TGI (OVCAR-3 ovarian) | TGI (OVCAR-4 ovarian) | TGI (OVCAR-5 ovarian) | TGI (OVCAR-8 ovarian) | TGI (PC-3 prostate) | TGI (RPMI-8226 leukemia) | TGI (SF-268 CNS) | TGI (SF-295 CNS) | TGI (SF-539 CNS) | TGI (SK-MEL-2 melanoma) | TGI (SK-MEL-28 melanoma) | TGI (SK-MEL-5 melanoma) | TGI (SK-OV-3 ovarian) | TGI (SN12C renal) | TGI (SNB-19 CNS) | TGI (SNB-75 CNS) | TGI (SR leukemia) | TGI (SW-620 colon) | TGI (TK-10 renal) | TGI (U251 CNS) | TGI (UACC-257 melanoma) | TGI (UACC-62 melanoma) | TGI (UO-31 renal)
